Where two headings read alike, the source gives them in different places.
Experiments:
Caco-2 cells = experiment: Counter-screen on Caco-2 cells, ATP level by luminescence (ATPlite), 48 h incubation; type: cell-based, human; details: atmospheric O2, 5% CO2, 48 h, 37 °C
Protocol: Trophozoites of G. intestinalis strain WB clone C6 (ATCC No. 50803TM) were cultured axenically at 37^∘C in 25-cm^2 flasks containing Diamond’s TYI-S-33 medium supplemented with 10% bovine calf serum, 1 mg/mL bovine bile, 0.1 g/L streptomycin and 100 U/mL penicillin. […] Human epithelial colorectal adenocarcinoma (Caco-2) cells were grown in 25-cm^2 flasks in EMEM supplemented with 1% (v/v) non-essential amino acids, 2 mM glutamine, 5% (v/v) fetal bovine serum, 0.1 g/L streptomycin, and 100 U/mL penicillin.
Cells were detached with 0.5% trypsin-EDTA and seeded in sterile 96-well white clear-bottom plates at the same density of Giardia trophozoites and at increasing concentration of the compound to be tested, as described above. The assays were carried out exactly as reported for the Giardia trophozoites, except that the plates were incubated (still at 37^∘C) at atmospheric O2 level, 5% CO2, and 95% humidity. Each drug concentration was tested in at least seven replicates. MTZ was used as an internal […] control in the assay. Following 48 h incubation with each compound, according to the manufacturer instructions, 100 μL of the ATPlite^TM luminescence assay system (Perkin Elmer) was added to each well for one-step lysis and ATP level detection by luminescence.
Luminometric data were calibrated using ATP standard curves and normalized to the ATP level measured in control DMSO-treated cells (taken as 100%). The measured ATP level percentage was plotted as a function of the compound concentration and the half-maximal inhibitory concentration (IC50) was obtained by fitting the resulting titration profile to the Hill equation ([Goutelle et al., 2008]). The selectivity index (SI) of the compounds was then calculated as the ratio between the IC50 value measured on human cells over the value determined on Giardia trophozoites (SI = IC50,Caco-2/IC50,Giardia).
Selectivity of the newly synthesized compounds toward Giardia was assessed by running a counter-screen on human epithelial Caco-2 cells. […] This allowed us to calculate the compounds SI, defined as the ratio between the IC50 value measured on human cells over the value determined on Giardia trophozoites.

[1] = system: Giardia intestinalis trophozoites; experiment: Drug susceptibility of Giardia trophozoites, ATP level by luminescence (BacTiter-Glo), 48 h incubation, anaerobic or microaerobic; type: cell-based, Giardia intestinalis strain WB clone C6; details: for IC50: 48 h, 37 °C, ATP level; for selectivity ratio at 48 h: human (Caco-2 cells) versus Giardia intestinalis, Caco-2, SI = IC50,Caco-2/IC50,Giardia; for Selectivity (IC50,Caco/IC50,Giardia) Anaerobiosis / Selectivity (IC50,Caco/IC50,Giardia) Microaerobiosis: SI = IC50,Caco-2/IC50,Giardia
Protocol: Trophozoites of G. intestinalis strain WB clone C6 (ATCC No. 50803TM) were cultured axenically at 37^∘C in 25-cm^2 flasks containing Diamond's TYI-S-33 medium supplemented with 10% bovine calf serum, 1 mg/mL bovine bile, 0.1 g/L streptomycin and 100 U/mL penicillin. Typically, 50 ml medium was inoculated with 25 × 10^6 cells and after 2 days cells were harvested by chilling the flasks on ice for 30 min for drug susceptibility assays. […] The assays were performed following the procedure described in [Bahadur et al. (2014)], using sterile 96-well white clear-bottom plates. […] Each drug concentration was tested in at least six replicates. MTZ was used as an internal positive control in the assay. The microtiter plates were then incubated at 37^∘C under anaerobic or microaerobic conditions, ensured by the Anaerocult® A or the Anaerocult® […] (Merck), respectively. […] Following 48 h incubation with the compound to be tested, 100 μL of the BacTiter-Glo^TM Microbial Cell Viability Assay System reagent (Promega) was added to each well for one-step lysis and ATP level detection. Plates were then incubated at room temperature for 15 min and ATP levels finally detected by luminescence on a plate reader (Wallac Victor3 1420 Multilabel Counter, PerkinElmer). Luminometric data were calibrated using ATP standard curves and normalized to the ATP level measured in control DMSO-treated cells (taken as 100%). The measured ATP level percentage was plotted as a function of the compound concentration and the half-maximal inhibitory concentration (IC50) was obtained by fitting the resulting titration profile to the Hill equation ([Goutelle et al., 2008]). The selectivity index (SI) of the compounds was then calculated as the ratio between the IC50 value measured on human cells over the value determined on Giardia trophozoites (SI = IC50,Caco-2/IC50,Giardia). The antigiardial activity of the novel compounds 23-67 was tested under both anaerobic and microaerobic conditions. According to ([Dunn et al., 2010]; [Bahadur et al., 2014]), susceptibility of Giardia trophozoites to increasing concentrations of each compound was assessed based on ATP level determination by luminescence. Dose-response curves for each compound were obtained after 48 h-incubation and compared to the data collected under identical conditions with MTZ, the drug of choice for treatment of giardiasis. […] Typical dose-response curves are shown in Figure 2, whereas the IC50 values measured for the synthetic compounds and MTZ under anaerobic and microaerobic conditions are reported in Table 1. […] Under anaerobic conditions, 18 out of the 45 synthetic compounds were as effective as MTZ or more under identical conditions (see Table 1).

[2] = Giardia duodenalis, anaerobic conditions (Anaerocult A), read-out: Giardia (anaerobiosis) IC50
[3] = Giardia duodenalis, microaerobic conditions (~5% O2, Anaerocult C), read-out: Giardia (microaerobiosis) IC50
[4] = Giardia under anaerobiosis, read-out: Selectivity (IC50,Caco/IC50,Giardia) Anaerobiosis
[5] = Giardia under microaerobiosis, read-out: Selectivity (IC50,Caco/IC50,Giardia) Microaerobiosis
[6] = anaerobic conditions (Anaerocult A), read-out: Giardia (anaerobiosis) IC50
[7] = microaerobic conditions (~5% O2, Anaerocult C), read-out: Giardia (microaerobiosis) IC50

**Q.** For Cc1ccc(-n2cc(Cn3c(=O)c(/C=C/C(=O)c4ccc(F)cc4)cc4ccccc43)nn2)cc1 [Compound 34], which IC50 (Caco-2 cells; Homo sapiens, Caco-2, 48 h) is on record?
**A.** The IC50 was 9.4 µM.

**Q.** What about the melting point of the same compound?
**A.** Its melting point is 215 to 217 °C.

**Q.** What about the IC50 [1, 2] of the same compound?
**A.** Its IC50 is 3.8 µM.

**Q.** And the IC50 [1, 3]?
**A.** The IC50 was 1.2 µM.

**Q.** What about the selectivity ratio at 48 h [1, 4] of the same compound?
**A.** Its selectivity ratio at 48 h is 2.5.

**Q.** What about the selectivity ratio at 48 h [1, 5] of the same compound?
**A.** The selectivity ratio at 48 h was 7.8.

**Q.** Which IC50 (Caco-2 cells; Homo sapiens, Caco-2, 48 h) does the source give for Cc1ccc(-n2cc(Cn3c(=O)c(/C=C/C(=O)c4ccc(Cl)cc4)cc4ccccc43)nn2)cc1 [Compound 35] here?
**A.** The IC50 was 7 µM.

**Q.** What about the melting point of the same compound?
**A.** The melting point was 196 to 198 °C.

**Q.** What about the IC50 [1, 2] of the same compound?
**A.** The IC50 was 2.4 µM.

**Q.** What about the IC50 [1, 3] of the same compound?
**A.** Its IC50 is 0.8 µM.

**Q.** What about the selectivity ratio at 48 h [1, 4] of the same compound?
**A.** Its selectivity ratio at 48 h is 2.9.

**Q.** And the selectivity ratio at 48 h [1, 5]?
**A.** The selectivity ratio at 48 h was 8.8.

**Q.** For Cc1ccc(-n2cc(Cn3c(=O)c(/C=C/C(=O)c4ccc(Br)cc4)cc4ccccc43)nn2)cc1 [Compound 36], which IC50 (Caco-2 cells; Homo sapiens, Caco-2, 48 h) is on record?
**A.** The IC50 was ≥ 50 µM.

**Q.** And the melting point?
**A.** The melting point was 216 to 218 °C.

**Q.** What about the IC50 [1, 2] of the same compound?
**A.** The IC50 was 10.7 µM.

**Q.** What about the IC50 [1, 3] of the same compound?
**A.** Its IC50 is 2.3 µM.

**Q.** What about the selectivity ratio at 48 h [1, 4] of the same compound?
**A.** Its selectivity ratio at 48 h is ≥ 4.

**Q.** And the selectivity ratio at 48 h [1, 5]?
**A.** The selectivity ratio at 48 h was ≥ 21.

**Q.** For COc1ccccc1C(=O)/C=C/c1cc2ccccc2n(Cc2cn(-c3ccc(C)cc3)nn2)c1=O [Compound 38], which IC50 (Caco-2 cells) is on record?
**A.** Its IC50 is 13.7 µM.

**Q.** What about the “Selectivity (IC50,Caco/IC50,Giardia) Anaerobiosis” value ([1]; Giardia under anaerobiosis) of the same compound?
**A.** The value was 6,9.

**Q.** What about the “Selectivity (IC50,Caco/IC50,Giardia) Microaerobiosis” value ([1]; Giardia under microaerobiosis) of the same compound?
**A.** The value was 34,3.

**Q.** What about the IC50 [1, 6] of the same compound?
**A.** The IC50 was 2 µM.

**Q.** And the IC50 [1, 7]?
**A.** Its IC50 is 0.4 µM.

**Q.** For COc1cccc(C(=O)/C=C/c2cc3ccccc3n(Cc3cn(-c4ccc(C)cc4)nn3)c2=O)c1 [Compound 39], which melting point is on record?
**A.** The melting point was 192 to 194 °C.

**Q.** And the IC50 [1, 2]?
**A.** Its IC50 is 2.9 µM.

**Q.** What about the IC50 [1, 3] of the same compound?
**A.** Its IC50 is 1.3 µM.

**Q.** Which IC50 (Caco-2 cells) does the source give for O=C(/C=C/c1cc2ccccc2n(Cc2cn(-c3ccc(F)cc3)nn2)c1=O)c1ccccc1F [Compound 41] here?
**A.** The IC50 was 5.2 µM.

**Q.** And the “Selectivity (IC50,Caco/IC50,Giardia) Anaerobiosis” value ([1]; Giardia under anaerobiosis)?
**A.** The value was 5,8.

**Q.** What about the “Selectivity (IC50,Caco/IC50,Giardia) Microaerobiosis” value ([1]; Giardia under microaerobiosis) of the same compound?
**A.** The value was 26.

**Q.** What about the IC50 [1, 6] of the same compound?
**A.** The IC50 was 0.9 µM.

**Q.** And the “fold more efficient than MTZ against Giardia” value ([1]; anaerobic conditions, relative to MTZ)?
**A.** The value was “three to fourfold”.

**Q.** What about the IC50 [1, 7] of the same compound?
**A.** Its IC50 is 0.2 µM.

**Q.** Which IC50 (Caco-2 cells) does the source give for Cc1ccc(C(=O)/C=C/c2cc3ccccc3n(Cc3cn(-c4ccc(F)cc4)nn3)c2=O)cc1 [Compound 46] here?
**A.** The IC50 was 6.3 µM.

**Q.** And the “Selectivity (IC50,Caco/IC50,Giardia) Anaerobiosis” value ([1]; Giardia under anaerobiosis)?
**A.** The value was 2,5.

**Q.** What about the “Selectivity (IC50,Caco/IC50,Giardia) Microaerobiosis” value ([1]; Giardia under microaerobiosis) of the same compound?
**A.** Its value is 15,8.

**Q.** And the IC50 [1, 6]?
**A.** The IC50 was 2.5 µM.

**Q.** And the IC50 [1, 7]?
**A.** Its IC50 is 0.4 µM.

**Q.** With COc1ccc(C(=O)/C=C/c2cc3ccccc3n(Cc3cn(-c4ccc(F)cc4)nn3)c2=O)cc1 [Compound 49] as the compound, how does the IC50 (Caco-2 cells) read?
**A.** The IC50 was ≥ 50 µM.

**Q.** And the “Selectivity (IC50,Caco/IC50,Giardia) Anaerobiosis” value ([1]; Giardia under anaerobiosis)?
**A.** Its value is ≥3.

**Q.** What about the “Selectivity (IC50,Caco/IC50,Giardia) Microaerobiosis” value ([1]; Giardia under microaerobiosis) of the same compound?
**A.** Its value is ≥38.

**Q.** What about the IC50 [1, 6] of the same compound?
**A.** The IC50 was 13 µM.

**Q.** What about the IC50 [1, 7] of the same compound?
**A.** The IC50 was 1.3 µM.

**Q.** With O=C(/C=C/c1cc2ccccc2n(Cc2cn(-c3ccc(Cl)cc3)nn2)c1=O)c1ccc(Br)cc1 [Compound 54] as the compound, how does the IC50 (Caco-2 cells) read?
**A.** Its IC50 is ≥ 20 µM.

**Q.** And the “Selectivity (IC50,Caco/IC50,Giardia) Anaerobiosis” value ([1]; Giardia under anaerobiosis)?
**A.** The value was ≥ 2.

**Q.** What about the “Selectivity (IC50,Caco/IC50,Giardia) Microaerobiosis” value ([1]; Giardia under microaerobiosis) of the same compound?
**A.** Its value is ≥10.

**Q.** And the IC50 [1, 6]?
**A.** The IC50 was 9.2 µM.

**Q.** What about the IC50 [1, 7] of the same compound?
**A.** Its IC50 is 1.9 µM.

**Q.** For O=C(/C=C/c1cc2ccccc2n(Cc2cn(-c3ccccc3)nn2)c1=O)c1ccc(Br)cc1 [Compound 63], which IC50 (Caco-2 cells) is on record?
**A.** The IC50 was ≥ 50 µM.

**Q.** What about the “Selectivity (IC50,Caco/IC50,Giardia) Anaerobiosis” value ([1]; Giardia under anaerobiosis) of the same compound?
**A.** The value was ≥ 7.

**Q.** And the “Selectivity (IC50,Caco/IC50,Giardia) Microaerobiosis” value ([1]; Giardia under microaerobiosis)?
**A.** Its value is ≥ 50.

**Q.** What about the IC50 [1, 6] of the same compound?
**A.** Its IC50 is 6.3 µM.

**Q.** What about the IC50 [1, 7] of the same compound?
**A.** Its IC50 is 1 µM.

**Q.** Which results are given for Cc1ncc([N+](=O)[O-])n1CCO [MTZ, metronidazole, reference compound]?
**A.** IC50 (Caco-2 cells; Homo sapiens, Caco-2, 48 h): > 100 µM; IC50 [1, 2]: 3.4 µM; IC50 [1, 3]: ≥ 25 µM; selectivity ratio at 48 h [1, 4]: ≥ 29

Reference: paper PMC4389562, “Antigiardial activity of novel triazolyl-quinolone-based chalcone derivatives: when oxygen makes the difference” (Frontiers in Microbiology, 2015)
